According to paper PMC3724985, “Isolation, biochemical characterization, and cloning of a bacteriocin from the poultry-associated Staphylococcus aureus strain CH-91” (Applied Microbiology and Biotechnology, 2012):
Values after ≈ are worked out from the molar mass of the structure shown. “Also recorded” adds a separate entry of the source.

Experiments:
Gram-negative strains = test: MIC, micro-dilution method, Gram-negative strains as a group; format: cell-based; settings: highest (maximal) concentration tested 100 μM, CLSI M7-A7, cation-adjusted MHB
Text: S. aureus CH-91 was kindly provided by S. Takeuchi from Fukui Prefectural University, Japan (Takeuchi et al. [1999]). The strain has been deposited in the DSMZ collection under the number DSM 26258. Bacillus licheniformis NCTC 7224, Bacillus subtilis ATCC 6633, Lactococcus lactis subsp. lactis LOCK 0869, Micrococcus luteus strains DSMZ 20030 and CBM (clinical isolate), Sarcina lutea ATCC 9341, S. aureus strains ATCC 25923, M-122 (Polakowska et al. [2012]), Newman and RN4220, S. epidermidis ATCC 35347, Staphylococcus intermedius ATCC 29666, Staphylococcus pseudintermedius LMG 22219 (Devriese et al. [2005]), Staphylococcus saprophyticus ATCC 49453, Staphylococcus xylosus strains isolated from the skin of healthy chickens, Streptococcus mutans ATCC 25175, Streptococcus pneumoniae ATCC 49619, Escherichia coli K12 ATCC 10798, Klebsiella pneumoniae, Serratia marcescens, and Sphingomonas sp. AMC 3962 (Dziga et al. [2012]) were obtained from the collections of The Faculty of Biochemistry, Biophysics and Biotechnology, Jagiellonian University, Krakow, Poland. […]
The bactericidal activity of BacCH91 was determined using the micro-dilution method in compliance with Clinical and Laboratory Standards Institute guidelines M7-A7 (CLSI [2006]). […] After overnight incubation at 37 °C, the optical density (OD) at 600 nm was measured. […]

[1] = tested on: Bacillus licheniformis NCTC 7224; format: cell-based
Text: (§1) S. aureus CH-91 was kindly provided by S. Takeuchi from Fukui Prefectural University, Japan (Takeuchi et al. [1999]). The strain has been deposited in the DSMZ collection under the number DSM 26258. Bacillus licheniformis NCTC 7224, Bacillus subtilis ATCC 6633, Lactococcus lactis subsp. lactis LOCK 0869, Micrococcus luteus strains DSMZ 20030 and CBM (clinical isolate), Sarcina lutea ATCC 9341, S. aureus strains ATCC 25923, M-122 (Polakowska et al. [2012]), Newman and RN4220, S. epidermidis ATCC 35347, Staphylococcus intermedius ATCC 29666, Staphylococcus pseudintermedius LMG 22219 (Devriese et al. [2005]), Staphylococcus saprophyticus ATCC 49453, Staphylococcus xylosus strains isolated from the skin of healthy chickens, Streptococcus mutans ATCC 25175, Streptococcus pneumoniae ATCC 49619, Escherichia coli K12 ATCC 10798, Klebsiella pneumoniae, Serratia marcescens, and Sphingomonas sp. AMC 3962 (Dziga et al. [2012]) were obtained from the collections of The Faculty of Biochemistry, Biophysics and Biotechnology, Jagiellonian University, Krakow, Poland. A list of strains used for assessment of the general occurrence of the bacteriocin gene is provided in the Electronic supplementary materials (ESM; Table S1). Gram-positive and Gram-negative bacteria were maintained at 37 °C in tryptic soy broth (TSB) and Luria-Bertani broth (both obtained from Sigma), respectively.
(§2) The bactericidal activity of BacCH91 was determined using the micro-dilution method in compliance with Clinical and Laboratory Standards Institute guidelines M7-A7 (CLSI [2006]). Briefly, the bacteria were either cultivated in cation-adjusted MHB to the early exponential phase or grown overnight on agar-solidified MHB supplemented with 2.5 % LHB in the case of Streptococcus spp. and L. lactis. Subsequently, the bacteria were diluted to 1 × 10^6 CFU/ml either in MHB or in MHB supplemented with 5 % LHB, in the case of the latter bacteria. Fifty-microliter portions of bacterial suspension were mixed with an equal volume of MHB containing serial twofold dilutions of bacteriocin. After overnight incubation at 37 °C, the optical density (OD) at 600 nm was measured. The MIC was defined as the minimum bacteriocin concentration for which the increase in OD was not observed compared to uninoculated broth.

[2] = tested on: Bacillus subtilis ATCC 6633; format: cell-based
Text: as §1, §2

[3] = tested on: Escherichia coli K12 ATCC 10798; format: cell-based
Text: as §1, §2

Klebsiella pneumoniae = format: cell-based
Text: as §1, §2

Sarcina lutea ATCC 9341 = format: cell-based
Text: as §1, §2

Serratia marcescens = format: cell-based
Text: as §1, §2

[4] = tested on: Sphingomonas sp. AMC 3962; format: cell-based
Text: as §1, §2

[5] = tested on: Staphylococcus aureus ATCC 25923; format: cell-based
Text: as §1, §2

[6] = tested on: Staphylococcus aureus CH91; format: cell-based
Text: as §1, §2

[7] = tested on: Staphylococcus aureus M-122; format: cell-based
Text: as §1, §2

[8] = tested on: Staphylococcus aureus Newman; format: cell-based
Text: as §1, §2

[9] = tested on: Staphylococcus aureus RN4220; format: cell-based; settings: Staphylococcus aureus RN4220, bacteriocin gene positive strain; micro-dilution, CLSI M7-A7, cation-adjusted MHB, overnight 37 °C, OD 600 nm
Text: as §1, §2

[10] = tested on: Staphylococcus epidermidis ATCC 35347; format: cell-based
Text: as §1, §2

[11] = tested on: Staphylococcus pseudintermedius LMG 22219; format: cell-based
Text: as §1, §2

[12] = tested on: Staphylococcus saprophiticus ATCC 49453; format: cell-based
Text: as §1, §2

[13] = tested on: Staphylococcus xylosus kw 2,5; format: cell-based
Text: as §1, §2

[14] = tested on: Streptococcus mutans ATCC 25175; format: cell-based
Text: as §1, §2

[15] = tested on: Streptococcus pneumoniae ATCC 49619; format: cell-based
Text: as §1, §2

[16] = tested on: various S. aureus strains; format: cell-based
Text: as §1, §2

[17] = pH stability, residual activity by radial diffusion assay; format: physicochemical; settings: 30 μM, S. lutea ATCC 9341, triplicate
Procedure: (§3) To test the pH stability of BacCH91, a water solution of the bacteriocin (final concentration, 30 μM) was evaporated in a vacuum centrifuge and re-dissolved in (a) 100 mM sodium citrate pH 3.0, 4.0, 5.0, and 6.0; […] The solutions were incubated for 3 h at RT, and the residual activity of the bacteriocin was determined using the radial diffusion assay. The temperature stability of BacCH91 (30 μM final concentration) was determined in 50 mM Tris–HCl pH 7.4, 0.15 M NaCl and 50 mM bis-Tris pH 6.4, 0.15 M NaCl. The solutions were incubated for 1, 6, and 24 h at 37, 60, 80, and 99 °C. […] All of the above experiments were performed in triplicate. The final results are presented as means ± SD.

[18] = format: physicochemical; settings: 30 μM, radial diffusion assay, S. lutea
Procedure: as §3

proteinase K = target: T1, proteinase K (Parengyodontium album, UniProt P06873); test: Susceptibility to proteolysis, proteinase K; format: in vitro ADME; settings: 30 μM, enzyme/bacteriocin 1:20 by weight, 1 h at 37 °C; radial diffusion assay and HPLC
T1 construct: purchased A&A Biotechnology
T1 sequence (P06873 106-384): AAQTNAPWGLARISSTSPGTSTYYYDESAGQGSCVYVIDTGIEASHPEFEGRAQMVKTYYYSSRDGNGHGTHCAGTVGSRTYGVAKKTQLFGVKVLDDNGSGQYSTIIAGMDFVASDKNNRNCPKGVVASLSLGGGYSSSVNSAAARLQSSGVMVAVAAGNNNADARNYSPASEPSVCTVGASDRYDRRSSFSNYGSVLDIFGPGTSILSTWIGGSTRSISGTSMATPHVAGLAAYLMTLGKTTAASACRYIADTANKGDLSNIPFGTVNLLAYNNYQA
Procedure: All of the above experiments were performed in triplicate. The final results are presented as means ± SD.

## C/C=C(\NC(=O)[C@H](CCCCN)NC(=O)CNC(=O)[C@@H]1CS[C@@H](C)[C@@H](NC(=O)[C@@H]2CSC[C@@H](NC(=O)/C(=C/C)NC(=O)[C@@H](N)[C@@H](C)CC)C(=O)N[C@@H](Cc3ccccc3)C(=O)N[C@@H]([C@@H](C)CC)C(=O)NCC(=O)N2)C(=O)N2CCC[C@H]2C(=O)NCC(=O)N1)C(=O)NCC(=O)N[C@@H]1CSC[C@@H]2NC(=O)[C@H](Cc3ccccc3)NC(=O)[C@@H](CS/C=C\NC2=O)NC(=O)[C@H](CC(N)=O)NC(=O)[C@H](Cc2ccccc2)NC1=O [BacCH91]
Gram-negative strains
  susceptibility of Gram-negative strains to BacCH91: ineffective; also recorded: None of the Gram-negative species assayed were susceptible
[1]
  MIC: 1.8 µM (≈ 3.74 µg/mL)
[2]
  MIC: 2.6 µM (≈ 5.4 µg/mL)
[3]
  MIC: >100 µM
Klebsiella pneumoniae
  MIC: >100 µM
Sarcina lutea ATCC 9341
  MIC: 0.31 µM (≈ 0.644 µg/mL)
Serratia marcescens
  MIC: >100 µM
[4]
  MIC: >100 µM
[5]
  MIC: 6.0 µM (≈ 12.5 µg/mL)
[6]
  MIC: 1.3 µM (≈ 2.7 µg/mL)
[7]
  MIC: 4.0 µM (≈ 8.31 µg/mL)
[8]
  MIC: 6.0 µM (≈ 12.5 µg/mL)
[9]
  MIC: 6.0 µM (≈ 12.5 µg/mL)
[10]
  MIC: 1.6 µM (≈ 3.32 µg/mL)
[11]
  MIC: 1.5 µM (≈ 3.11 µg/mL)
[12]
  MIC: 3.0 µM (≈ 6.23 µg/mL)
[13]
  MIC: 1.5 to 2.0 µM
[14]
  MIC: 2.0 µM (≈ 4.15 µg/mL)
[15]
  MIC: 1.6 µM (≈ 3.32 µg/mL)
[16]
  MIC: 6.0 µM (≈ 12.5 µg/mL)
[17]; 100 mM 3-cyclohexylamino-1-propanesulphonic acid-NaOH pH 11.0, 3 h at RT
  residual bactericidal activity after incubation at pH 11.0: complete inactivation
[17]; 100 mM Tris–HCl pH 7.0, 8.0, 9.0 and 100 mM CAPS-NaOH pH 10.0, 11.0, 3 h at RT
  residual bactericidal activity after incubation at pH 7.0 and higher: gradual loss of bactericidal activity
[17]; 100 mM sodium citrate pH 3.0, 4.0, 5.0, 6.0, 3 h at RT
  residual bactericidal activity after incubation at pH 3.0–6.0: retained full bactericidal activity
[18]; 50 mM Tris–HCl pH 7.4, 0.15 M NaCl and 50 mM bis-Tris pH 6.4, 0.15 M NaCl, 37, 60, 80 °C, 1 h, triplicate
  residual activity after 1 h at temperatures up to 80 °C: maintained its activity
[18]; pH 6.4 and pH 7.4 buffers with 0.15 M NaCl, 6 and 24 h time points, triplicate
  residual activity after several hours at temperatures higher than 60 °C: complete inactivation
[18]; pH 6.4 and pH 7.4 buffers with 0.15 M NaCl, 80 °C, 1 h
  activity retained during incubation for 1 h at 80 °C: ~100%
[18]; pH 6.4 and pH 7.4 buffers with 0.15 M NaCl, 99 °C, triplicate
  residual activity after short incubation at 99 °C: complete inactivation
Proteinase K
  effect of proteinase K on BacCH91: unaffected
